US20160030364A1, “Therapeutic Compositions and Uses Thereof” (MANUKA HEALTH NEW ZEALAND LIMITED, priority 2013, published 2016)

Assays:
Type in all cases: cell-based
[1] = tested on: human colorectal adenocarcinoma cells (DLD-1); experiment: MTT anti-proliferative assay, DLD-1 (Examples 3-12); conditions: 200 μg/ml; for % stim. / Mean OD (570 nm) / % inhibition: 48 hours; for inhibition at 200 µg/mL: Homo sapiens, DLD-1, 48 h
Protocol: (§1) 5-phenylpenta-2,4-dienoic acid was assessed for its ability to modulate the viability and proliferation of human colorectal adenocarcinoma cells (DLD-1); human colon cancer cell line (HCT-116); human gastric carcinoma cell line (NCI-N87); and human oesophageal squamous cell carcinoma cell line (KYSE-30) as assessed by the MTT assay. The positive control, 5-fluorouracil (5-FU) was included at three concentrations; in addition to an unsupplemented cell control as a negative control in the study. The 5-phenylpenta-2,4-dienoic acid was a genuine standard with chemical structure confirmed by NMR and MS.
(§2) The four human gastrointestinal carcinoma cell lines were revived from cryostorage and cultured in the presence of the test and reference samples. An MTT assay was then performed on the cultures to determine the effect of the samples on the cell viability and proliferation.
(§3) The test sample 5-phenylpenta-2,4-dienoic acid, and all other test samples in Examples 4-12 (except tectochrysln) were Initially dissolved in pure ethanol to a concentration of around 13.35 mg/ml. Tectochrysin was initially dissolved in triethylene glycol mono-methyl ether to the same concentration. Working solutions were then prepared from the stock solutions by dilution to 15% ethanol/Hanks Balanced Salt Solution (ETOH)/HBSS to a concentration of 2 mg/mL solids. In the assay the final concentration of the samples was 200 μg/ml with a final EtOH concentration of 1.5%. Final concentrations of test compounds and propolis prepared as above are as noted in Example 3.
(§4) • 1. Human colorectal adenocarcinoma cells (ATCC CCI-221, DLD-1)(ATCC, Bethesda, Md., USA) • 2. Human gastric carcinoma cells (ATCC CRL-5822, NCI-N87)(ATCC, Bethesda, Md., USA) • 3. Human oesophageal squamous cell carcinoma (ECACC, KYSE-30)(Sigma Aldrich, Auckland, NZ) • 4. Human colon carcinoma cells (ECACC HCT-116)(Sigma Aldrich, Auckland, NZ) • 5. Penicillin-streptomycin solution: 10000 units/ml penicillin, 10 mg/ml streptomycin in 0.9% NaCl (Sigma Cat #P-0781). Stored at −20° C. • 6. For DLD-1 cells: DMEM culture medium (Invitrogen Cat #12100-046). Stored at 4° C. • 7. For NCI-N87 cells: RPMI-1640 medium modified to contain 2 mM L-glutamine, 10 mM HEPES, 1 mM sodium pyruvate, 4500 mg/L glucose, and 1500 mg/L sodium bicarbonate (Sigma R6504). Stored at 4° C. • 8. For KYSE-410 cells: RPMI-1640 medium modified to contain 2 mM L-glutamine (Sigma R6504). Stored at 4° C. • 9. For HCT-116 cells: McCoy's 5A medium modified to contain 2 mM L-glutamine (Sigma M48792). Stored at 4° C. • 10. Trypsin-EDTA solution: 0.25% Trypsin/EDTA, Invitrogen Cat#15400054 (×10 in stock). • 11. Phosphate buffered saline (PBS) (Prepared by TBL). • 12. Hanks Balanced Salt Solution (HBSS). (GIBCO Cat No. 14185-052). Stored at 4° C. • 13. Foetal Bovine Serum (GIBCO Cat #10091-148). Stored at −20° C. • 14. MTT Reagent: 100 mg/vial, (SIGMA Cat. No. M-2128) dissolved in PBS at 10 mg/ml and stored at −20° C. 5 mg/ml MTT solution will be prepared in PBS and stored at 4° C. as working solution. • 15. MTT lysis buffer: 10% sodium dodecyl sulphate (SDS)/45% Dimethyl Formamide (20 g SDS will be dissolved in 100 ml of double-distilled water (DDW), and 90 ml of Dimethyl Formamide will be added to the SDS solution). The pH will be adjusted to 4.7 by glacial acetic acid, and DDW added up to a final volume of 200 ml. • 16. 5-Fluorouracil (5-FU), (Sigma Cat. No. F-6627). Three working solutions will be prepared at 19.5 μg/ml. 6.5 μg/ml and 1.95 μg/ml dissolved in 15% Ethanol/HBSS. Final concentrations will be 1.95 μg/ml (15 μM), 0.65 μg/ml (5 μM) and 0.195 μg/ml (1.5 μM).
(§5) The medium for the propagation of the each of the cells lines is given above. Each medium was prepared following the ATCC/ECACC instructions and supplemented with penicillin-streptomycin solution (10 ml per litre). FBS (at 10%) was added just before use.
• 1. […]

[2] = tested on: human colon cancer cell line (HCT-116); experiment: MTT anti-proliferative assay, HCT-116 (Examples 3-12); conditions: 200 μg/ml; for % inhibition / % stim. / Mean OD (570 nm): 48 hours; for inhibition at 200 µg/mL: Homo sapiens, HCT-116, 48 h
Protocol: as §1, §2, §3, §4, §5
• 1. […]

[3] = tested on: human gastric carcinoma cell line (NCI-N87); experiment: MTT anti-proliferative assay, NCI-N87 (Examples 3-12); conditions: 200 μg/ml; for % stim. / Mean OD (570 nm) / % inhibition: 48 hours; for inhibition at 200 µg/mL: Homo sapiens, NCI-N87, 48 h
Protocol: as §1, §2, §3, §4, §5
• 1. […]

[4] = tested on: human oesophageal squamous cell carcinoma cell line (KYSE-30); experiment: MTT anti-proliferative assay, KYSE-30 (Examples 3-13); conditions: Examples 3-12, 200 μg/ml, 48 hours; for inhibition at 200 µg/mL: Homo sapiens, KYSE-30, 48 h
Protocol: as §1, §2, §3, §4, §5
• 1. […]

[5] = tested on: human colorectal adenocarcinoma cells (DLD-1); experiment: MTT proliferation assay, DLD-1 (Examples 1-2); conditions: Example 2, DLD-1, sample 200 μg/mL, 24 hours incubation; for inhibition at 200 µg/mL: Homo sapiens
Protocol: (§6) Test samples shown below in Table 2 were assessed for their ability to modulate the viability and proliferation of human colorectal adenocarcinoma cells (DLD-1) as assessed by the MTT assay. A positive control, 5-fluorouracil (5-FU) was included in addition to an unsupplemented cell control (negative control) in the study. The test samples were obtained by fractionation of propolis tincture.
as §6, with “study.” for “study. The test samples were obtained by fractionation of propolis tincture.”
Human colorectal adenocarcinoma epithelial cell lines were revived from cryostorage and cultured in the presence of the test and reference samples. The culture conditions for the cells were those described by the supplier of the cells (ATCC). An MTT assay was then performed on the cultures to determine the effect of the samples on the cell proliferation.
Working solutions were prepared by dissolving the test fractions in 15% ethanol (ETOH)/HBSS to a concentration of 2 mg/mL solids.
• 1. Human colorectal adenocarcinoma cells (ATCC CCI-221, DLD-1). • 2. Penicillin-streptomycin solution: 10000 units/mL penicillin, 10 mg/mL streptomycin in 0.9% NaCl (Sigma Cat #P-0781). Stored at −20° C. • 3. DMEM culture medium (Invitrogen Cat #12100-046) Stored at −20° C. • 4. Trypsin-EDTA solution: 0.25% Trypsin/EDTA, Invitrogen Cat#15400054 (×10 in stock). • 5. Phosphate buffered saline (PBS) (Prepared by TBL). • 6. Hanks Balanced Salt Solution (HBSS). (GIBCO Cat No. 14185-052). Stored at 4° C. • 7. Foetal Bovine Serum (GIBCO Cat #10091-148). Stored at −20° C. • 8. MTT Reagent: 100 mg/vial, (SIGMA Cat. No. M-2128) dissolved in PBS at 10 mg/mL and stored at −20° C. 5 mg/mL MTT solution were prepared in PBS and stored at 4° C. as working solution. • 9. MTT lysis buffer: 10% sodium dodecyl sulphate (SDS)/45% Dimethyl Formamide (20 g SDS was dissolved in 100 mL of double-distilled water (DDW), and 90 mL of Dimethyl Formamide added to the SDS solution). The pH was adjusted to 4.7 by glacial acetic acid, and DDW added up to a final volume of 200 mL. • 10. 5-Fluorouracil (5-FU), (Sigma Cat. No. F-6627). Two working solutions were prepared at 150 ng/mL and 75 ng/mL, dissolved in 15% Ethanol/HBSS. Final concentrations were 7.50 ng/mL and 3.75 ng/mL.
The medium for the propagation of the colorectal adenocarcinoma (DLD-1) cells was DMEM, supplemented with penicillin-streptomycin solution (10 mL per litre). FBS was added just before use to give 10% w/v.
• 1. The human colorectal adenocarcinoma cells (DLD-1) obtained from the American Type Culture Collection USA were revived from cryostorage. • 2. Following initial propagation using the media described above (see Medium Preparation), the culture was subcultured using the trypsin-EDTA as follows. The media was removed and 5 mL of the trypsin-EDTA solution added and incubated at 37° C. for 5 min or until all the cells had detached. The trypsin was neutralised by adding an equal volume of DMEM medium and the culture centrifuged at 300 g (1200 rpm) for 5 min at 4° C. • 3. The supernatant was decanted and the cell pellets resuspended in medium DMEM, FBS (10%), penicillin (100 units/mL), streptomycin (100 μg/mL). The cells were cultured at 37° C. in 5% CO2/95% air. • 4. After reaching confluence, the cells were detached using trypsin-EDTA and centrifuged as described in 2 above. • 5. The supernatants were discarded and the cells resuspended in DMEM and supplements as described in 3 above at 1.0×10^4 cells per mL. • 6. Into each well of three 96 well plates, 180 μl of the cells (1,800 cells/well) or medium was added. The plates were incubated at 5% CO2/95% air at 37° C. for 48 h which was sufficient to allow the cells to adhere. • 7. To each well, 20 μl of each, of the test samples or positive control was added. […]

[6] = listed as Pinobanksin 3-O-acetate

| SMILES | % stim. [1] | Mean OD (570 nm) [1] | % inhibition [2] | % stim. [2] | Mean OD (570 nm) [2] | % stim. [3] | Mean OD (570 nm) [3] | % inhibition [4] | % stim. [4] | Mean OD (570 nm) [4] | inhibition at 200 µg/mL [5] | Mean OD (570 nm) [5] | other results |
| --- | --- | --- | --- | --- | --- | --- | --- | --- | --- | --- | --- | --- | --- |
| O=C(O)C=CC=Cc1ccccc1 [5-phenylpenta-2,4-dienoic acid] | 0% | 0.2329 | 36.43% | 0% | 0.3232 | 0% | 0.2537 | 37.55% | 0% | 0.3758 |  |  | inhibition at 200 µg/mL [1]: 43.5%; inhibition at 200 µg/mL [2]: 36.4%; inhibition at 200 µg/mL [3]: 42.6%; inhibition at 200 µg/mL [4]: 37.6% |
| O=C(/C=C/c1ccc(O)c(O)c1)OCCc1ccccc1 [CAPE, Caffeic acid phenethyl ester] |  |  |  |  |  |  |  |  |  |  | 76% |  |  |
| O=C(O)/C=C/c1ccc(O)c(O)c1 [Caffeic acid] |  |  |  |  |  |  |  |  |  |  | 96.5% | 0.0113 |  |
| O=c1cc(-c2ccccc2)oc2cc(O)cc(O)c12 [Chrysin] |  |  |  |  |  |  |  |  |  |  | 61.9% |  |  |
| O=c1c(O)c(-c2ccccc2)oc2cc(O)cc(O)c12 [Galangin] |  |  |  |  |  |  |  |  |  |  | 56.5% |  |  |
| COc1cc(O)c2c(c1)OC(c1ccccc1)CC2=O (stereo not shown) [Pinocembrin 7-methyl ether] |  |  |  |  |  |  |  |  |  |  |  | 0.3151 | % inhibition [5]: 2.71%; % inhibition ([5]; listed as #38 Pinocembrin 7-methyl ether): 2.7% |
| O=C(O)/C=C/c1ccccc1 [Trans-Cinnamic acid] |  |  |  |  |  |  |  |  |  |  | 26.2% | 0.2390 |  |
| COc1ccc(/C=C/C(=O)OCc2ccccc2)cc1O [benzyl isoferulate] | 0% | 0.0379 | 94.81% | 0% | 0.0264 | 0% | 0.0885 | 95.82% | 0% | 0.0251 |  |  | % inhibition [1]: 90.81%; inhibition at 200 µg/mL [1]: 90.8%; inhibition at 200 µg/mL [2]: 94.8%; % inhibition [3]: 79.95%; inhibition at 200 µg/mL [3]: 80%; inhibition at 200 µg/mL [4]: 95.8% |
| CC(=O)O[C@H]1C(=O)c2c(O)cc(O)cc2O[C@@H]1c1ccccc1 [pinobanksin 3-O-acetate, pinobanksin-3-acetate] | 0% |  | 90.61% | 0% | 0.0477 | 0% | 0.2287 | 68.01% | 0% |  |  |  | % inhibition [1, 6]: 75.4%; % inhibition [2, 6]: 90.6%; % inhibition [3]: 48.22%; % inhibition [3, 6]: 48.2%; % inhibition [4, 6]: 68.0% |
| COc1cc(O)c(C(=O)/C=C/c2ccccc2)c(O)c1 [pinostrobin chalcone] | 0% | 0.069 | 51.2% | 0% | 0.2482 | 5.5% | 0.4659 | 45.0% | 0% | 0.3312 |  |  | % inhibition [1]: 83.3% |
